Assay results published in PMC10435442, “Developing multitarget coumarin based anti-breast cancer agents: synthesis and molecular modeling study” (Scientific Reports, 2023).
Converted amounts (≈) assume the structure as drawn. “And” between values parts separate entries of the source, which are not always exact repeats. Identical values can stand only once. Like-named read-outs stand apart in the source and are kept apart here. Each block holds one molecule with its values, some of them ahead of it.

Tests used:
[1] = system: ARO; set-up: method as in PMID 21341743, PMID 28512028, PMID 15358790, PMID 24607878, PMID 30360952; conditions: reported coumarin derivatives, Fig. 1b; read-out: ARO inhibitior IC50; cited from earlier work
[2] = biological target: EGFR (Homo sapiens, UniProt P00533); assay: In vitro EGFR enzyme inhibition assay (ELISA); conditions: for EGFR %inh: lab report 01-11-2021
[3] = system: MCF-7; assay: MTT cytotoxicity assay, MCF-7; conditions: for IC50: Homo sapiens
[4] = in vitro; conditions: human, MCF-10A cells (nonmalignant breast)
[5] = biological target: T1, aromatase (ARO) (Homo sapiens, UniProt P11511); assay: In vitro aromatase (ARO) enzyme inhibition assay (ELISA)
T1 sequence (P11511 1-503): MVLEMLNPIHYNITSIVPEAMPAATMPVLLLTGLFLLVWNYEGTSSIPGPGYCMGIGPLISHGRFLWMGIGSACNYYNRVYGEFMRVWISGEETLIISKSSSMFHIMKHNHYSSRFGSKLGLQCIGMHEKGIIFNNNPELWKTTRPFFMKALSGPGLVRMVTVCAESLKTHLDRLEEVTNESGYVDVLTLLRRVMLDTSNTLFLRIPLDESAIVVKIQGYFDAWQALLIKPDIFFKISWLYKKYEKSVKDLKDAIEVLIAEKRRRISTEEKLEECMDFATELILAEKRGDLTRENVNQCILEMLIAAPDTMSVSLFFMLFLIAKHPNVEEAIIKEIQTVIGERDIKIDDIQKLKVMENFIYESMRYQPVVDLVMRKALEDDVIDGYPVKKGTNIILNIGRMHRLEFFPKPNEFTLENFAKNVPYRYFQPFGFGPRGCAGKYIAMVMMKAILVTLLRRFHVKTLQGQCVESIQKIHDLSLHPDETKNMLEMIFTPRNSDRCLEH

[6] = system: MCF-10A; assay: MTT cytotoxicity assay, nonmalignant MCF-10A; conditions: read-out: MCF-10A IC50; MTT, nonmalignant MCF-10A;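 further: MTT assay with absorbance read at 570 nm after 48 h exposure of cells to serial compound concentrations at 37 °C, testing selectivity against nonmalignant versus cancer cells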
[7] = system: MDA-MB-231; assay: MTT cytotoxicity assay, MDA-MB-231; conditions: for IC50: Homo sapiens; for % viability: MDA

Chain of EGFR (P00533 25-1210): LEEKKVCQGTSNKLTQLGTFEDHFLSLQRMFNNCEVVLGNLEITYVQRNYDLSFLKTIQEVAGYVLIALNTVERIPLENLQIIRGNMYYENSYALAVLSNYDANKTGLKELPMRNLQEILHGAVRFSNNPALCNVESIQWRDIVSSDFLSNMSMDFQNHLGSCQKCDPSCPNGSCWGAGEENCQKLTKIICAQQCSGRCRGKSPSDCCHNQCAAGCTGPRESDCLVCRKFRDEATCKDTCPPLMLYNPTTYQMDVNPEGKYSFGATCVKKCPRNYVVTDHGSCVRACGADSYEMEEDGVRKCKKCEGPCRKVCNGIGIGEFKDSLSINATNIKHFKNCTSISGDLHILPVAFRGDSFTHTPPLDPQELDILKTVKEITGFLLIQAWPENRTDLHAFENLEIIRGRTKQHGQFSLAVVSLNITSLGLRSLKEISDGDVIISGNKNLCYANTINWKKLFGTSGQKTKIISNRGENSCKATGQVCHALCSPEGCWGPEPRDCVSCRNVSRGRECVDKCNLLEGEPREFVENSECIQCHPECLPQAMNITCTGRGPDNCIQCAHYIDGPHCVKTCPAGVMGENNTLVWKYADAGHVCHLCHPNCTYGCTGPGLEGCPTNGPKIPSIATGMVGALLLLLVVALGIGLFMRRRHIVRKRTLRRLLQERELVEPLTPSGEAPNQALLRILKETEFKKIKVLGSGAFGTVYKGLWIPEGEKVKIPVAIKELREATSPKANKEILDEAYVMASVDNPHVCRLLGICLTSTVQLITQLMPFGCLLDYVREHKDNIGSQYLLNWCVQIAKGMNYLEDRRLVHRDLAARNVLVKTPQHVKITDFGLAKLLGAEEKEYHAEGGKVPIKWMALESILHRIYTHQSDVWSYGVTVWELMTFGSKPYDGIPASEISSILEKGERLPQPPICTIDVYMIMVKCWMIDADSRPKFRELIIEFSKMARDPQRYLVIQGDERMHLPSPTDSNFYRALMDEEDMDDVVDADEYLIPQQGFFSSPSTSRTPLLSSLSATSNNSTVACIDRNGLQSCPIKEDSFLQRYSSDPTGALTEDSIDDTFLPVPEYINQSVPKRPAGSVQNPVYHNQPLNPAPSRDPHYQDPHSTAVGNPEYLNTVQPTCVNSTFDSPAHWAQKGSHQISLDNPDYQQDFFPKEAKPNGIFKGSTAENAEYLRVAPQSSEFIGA

SMILES: O=c1cc(Cn2ccnc2)c2ccc(Oc3ccc(F)c(F)c3)cc2o1 [II]
IC50 [1]: 47 nM

IC50 ([2]; EGFR IC50, lab report 01-11-2021, 10 compounds): 864 nM
IC50 ([2]; EGFR inhibition IC50): 864 ± 54 nM
EGFR %inh ([2]; conc 0.01 (unit not given)): 20%
EGFR %inh ([2]; conc 0.1 (unit not given)): 41%
EGFR %inh ([2]; conc 1 (unit not given)): 63%
EGFR %inh ([2]; conc 10 (unit not given)): 84%
Percentage above Reference IC50 (potency relative to erlotinib) ([2]; reference Erlotinib): 9.722%
IC50 at 48 h [4]: 55 ± 2.68 µg/mL (≈ 186 µM)
IC50 ([5]; ARO inhibition IC50): 216 ± 10 nM
IC50 ([5]; Aromatase IC50, lab report 14-12-2020): 216 nM
inhibition at 10 pg/mL ([5]; read-out: %inh): 37%
inhibition at 0.0001 µg/mL ([5]; read-out: %inh): 54%
inhibition at 0.001 µg/mL ([5]; read-out: %inh): 68%
inhibition at 0.01 µg/mL ([5]; read-out: %inh): 89%
SMILES: O=C(OCc1cc(=O)oc2cc(O)ccc12)c1ccccc1 [Compound 2, (7-Hydroxy-2-oxo-2H-chromen-4-yl)methyl benzoate]
IC50 ([3]; MCF7, read-out: MCF-7 IC50): 6000 ± 110 nM
IC50 ([3]; MCF7, read-out: cytotoxicity_IC50 mcf7): 1.78 ± 0.11 µg/mL
% viability ([3]; MCF7, 0.4ug): 58.765%
% viability ([3]; MCF7, 1.6ug): 52.469%
% viability ([3]; MCF7, 6.3ug): 41.79%
% viability ([3]; MCF7, 25ug): 32.963%
% viability ([3]; MCF7, 100ug): 21.0494%
viability at 48 h, 0.4 ug [4]: 88%
viability at 48 h, 1.6 ug [4]: 77.2%
viability at 48 h, 6.25 ug [4]: 66.5%
viability at 48 h, 25 ug [4]: 57.6%
viability at 48 h, 100 ug [4]: 44.4%
IC50 [6]: 186000 ± 2680 nM
IC50 ([7]; MDA-MB-231, read-out: MDA-MBA-231 IC50): 51900 ± 840 nM
IC50 ([7]; MDA-MB-231, read-out: cytotoxicity_IC50 MDA): 15.4 ± 0.84 µg/mL
% viability ([7]; 0.4ug (log conc. -0.41)): 75.87% and 75.875%
% viability ([7]; 1.6ug (log conc. 0.19)): 65.56% and 65.561%
% viability ([7]; 6.25ug (log conc. 0.8)): 57.358% and 57.36%
% viability ([7]; 25ug (log conc. 1.4)): 47.527% and 47.53%
% viability ([7]; 100ug (log conc. 2)): 36.5501% and 36.55%

SMILES: COc1ccc2c(Cc3ccccc3)c(-c3ccc(Cl)cc3)c(=O)oc2c1 [IV]
IC50 [1]: 80 nM
